According to patent US7056938B1, “Method for scavenging radicals with urocanic acid, derivatives and analogues” (Academisch Ziekenhuis Bij De Univ., priority 1999, dated 2006):

Assay: photooxidation of UCA with hydrogen peroxide under UV irradiation (HPLC)
Type: physicochemical
Settings: for YIELD OF PHOTOOXIDATION PRODUCTS: sum of 8 major peaks; for PHOTOISOMERIZATION cis-UCA / PHOTOISOMERIZATION trans-UCA: trans-UCA starting material
Procedure: Trans-UCA and cis-UCA were separated from each other and from several UCA oxidation products on a 4.6×250 mm Alltima C18 and Luna C18 reversed-phase column (Alitech, Deerfield, Ill. and Phenomenex, Torrence, Calif., resp.) with a flow of 0.8 mL/min, delivered by P-3500 HPLC-pumps (Pharmacia, Uppsala, Sweden). Samples of 20 to 200 μL were injected by a Promis II autosampler (Spark Holland, Emmen, The Netherlands) and chromatographic data were recorded on an SP 4270 integrator (Spectra Physics, San Jose, Calif.). Peak area data from samples were only processed under identical HPLC circumstances. A UV-detector (Applied Biosystems, model 759A, Foster City, Calif.) was set for 226 nm detection. Isocratic elution was performed with 10 mM ammonium formate buffer, containing 0.2–0.8 mM tetrabutylammonium(TBA)formate and 1% acetonitrile (pH 7.2). Collected fractions were acidified with formic acid up to a final concentration of 100 mM and passed through C18 could phase extraction columns (J T Baker, Deventer, The Netherlands) in order to remove TBA.
A 1-cm quartz cuvette, filled with 1.4 mL sample, was placed in the parallel beam of a filtered 1000 W Xenon are lamp (Oriel, Stratford, Conn.). The samples were magnetically stirred during irradiation. To minimize infrared (heat) and visible radiation, the beam was passed through a water filter (7 cm), reflected by a dichroic mirror and filtered through a 1=mm UG11 filter. Short wave cut off was achieved by passing the beam through WG280, WG305 or WG335 filters with 3 mm thickness each (Schott-Jena, Mainz, Germany). Xenon lamp emission filtered through WG280 included UV-C, UV-B and UV-A; through WG305 UV-B and UV-A and through WG335 only UV-A was included. Two narrow bands in the UV-B and UV-A spectral regions were selected to monitor the xenon-arc emission. The probe of a calibrated EG&G 550 radiometer (Salem, Mass., USA) was equipped with a neutral density filter and narrow band filter type UV-M-IL (Schott-Jena) with a transmission maximum of 21% at 303 nm and a half-width of 11.5 nm to monitor UV-B or with a type UV-PIL (Schott-Jena) with a transmission maximum of 46% at 363 nm and a half-width of 7.7 nm to monitor UV-A. Transmission spectra of the optical filters were checked on a Perkin Elmer Lambda 40 UV/VIS spectrometer (Norwalk, Conn., USA).
Additional irradiations were performed with fluorescent tubes TLI2, used as a UV-B source, and TL10R, used as a UV-A source (Philips, Eindhoven, The Netherlands), on samples that were magnetically stirred in small Petri dishes. The UV-B output was measured with an IL 443 phototherapy radiometer, fitted with a SEE 1240 silicon detector probe and the UV-A output with an IL 442A phototherapy radiometer with a SEE 115 detector probe (International Light, Newburyport, Mass., USA).
The O—O bond of hydrogen peroxide can be cleaved by UV radiation to yield hydroxyl radicals. Because both UCA isomers could effectively scavenge hydroxyl radicals, it is to be expected that UCA will be degraded and/or converted into oxidation products. The ability of simulated solar UV radiation to convert trans-UCA in the presence of hydrogen peroxide into photooxidation products was tested in vitro and analyzed by reversed-phase HPLC analysis. Hydrogen peroxide eluted close to void volume and trans-UCA and cis-UCA eluted with markedly different elution times of 20 and 64 min (FIGS. 3a–d). […] Exposing 80 μM trans-UCA in the absence of hydrogen peroxide at pH 7.2 to WG280-filtered xenon-arc emission (including UV-C and UV-B) resulted only and in the formation of cis-UCA via the process of photoisomerization (FIG. 3b). […] main photooxidation products were recognized as new peaks based on retention times and were assigned in the chromatogram (FIG. 3c).
In contrast, when exposures were performed with simulated solar radiation from which both UV-C and UV-B were blocked out by a WG335 filter, virtually no photo-oxidation products were found (FIG. 3d). […]

[1] = TL10R unfiltered, 320–440 nm, UV-B 0, UV-A 324
[2] = TL12 unfiltered, 280–366 nm, UV-B 3.6, UV-A 4.5
[3] = Xe arc W3305, 292–400 nm, UV-B 18, UV-A 70
[4] = Xe arc W3335, 320–400 nm, UV-B 0, UV-A 66
[5] = Xe arc W3280, 270–400 nm, UV-B 37, UV-A 70

## O=C(O)/C=C/c1cnc[nH]1 [trans-Urocanic acid, Trans-urocanic acid]
[1]
  YIELD OF PHOTOOXIDATION PRODUCTS: 16 (±5) A.U.
  PHOTOISOMERIZATION cis-UCA: 16%
  PHOTOISOMERIZATION trans-UCA: 84 (±7) %
[2]
  YIELD OF PHOTOOXIDATION PRODUCTS: 149 (±51) A.U.
  PHOTOISOMERIZATION cis-UCA: 59%
  PHOTOISOMERIZATION trans-UCA: 41 (±4) %
[3]
  YIELD OF PHOTOOXIDATION PRODUCTS: 239 (±14) A.U.
  PHOTOISOMERIZATION cis-UCA: 53%
  PHOTOISOMERIZATION trans-UCA: 47 (±3) %
[4]
  YIELD OF PHOTOOXIDATION PRODUCTS: 45 (±8) A.U.
  PHOTOISOMERIZATION cis-UCA: 40%
  PHOTOISOMERIZATION trans-UCA: 60 (±2) %
Extensive UCA breakdown (<4% of each UCA isomer left over)
  lowering of initial weight after severe photooxidation: ~14%
trans-UCA 40 μM, hydrogen peroxide 500 μM, TL10R unfiltered, 320–440 nm, UV-B 0, UV-A 324 kJ · M^−1
  UCA LEFT OVER: 99 (±3) %
trans-UCA 40 μM, hydrogen peroxide 500 μM, TL12 unfiltered, 280–366 nm, UV-B 3.6, UV-A 4.5 kJ · M^−1
  UCA LEFT OVER: 90 (±20) %
trans-UCA 40 μM, hydrogen peroxide 500 μM, Xe arc W3280, 270–400 nm, UV-C,-B,-A included, UV-B 37, UV-A 70 kJ · M^−1
  UCA LEFT OVER: 43 (±11) %
trans-UCA 40 μM, hydrogen peroxide 500 μM, Xe arc W3280, 270–400 nm, UV-B 37, UV-A 70
  YIELD OF PHOTOOXIDATION PRODUCTS: 347 (±58) A.U.
trans-UCA 40 μM, hydrogen peroxide 500 μM, Xe arc W3305, 292–400 nm, UV-B,-A included, UV-B 18, UV-A 70 kJ · M^−1
  UCA LEFT OVER: 64 (±6) %
trans-UCA 40 μM, hydrogen peroxide 500 μM, Xe arc W3335, 320–400 nm, only UV-A included, UV-B 0, UV-A 66 kJ · M^−1
  UCA LEFT OVER: 95 (±5) %
[5]
  PHOTOISOMERIZATION cis-UCA: 59%
  PHOTOISOMERIZATION trans-UCA: 43 (±2) %
